Laboratory results taken from publication PMC6691788, “Design and synthesis of phthalazine-based compounds as potent anticancer agents with potential antiangiogenic activity via VEGFR-2 inhibition” (Journal of Enzyme Inhibition and Medicinal Chemistry, 2019).
“Also recorded” adds a separate entry of the source. Where two headings read alike, the source gives them in different places.

Experiments:
LOX IMVI = experiment: NCI 60 cell panel SRB screen; assay type: cell-based; details: Homo sapiens
DU-145 = experiment: NCI 60 cell panel SRB screen; assay type: cell-based; details: Homo sapiens
OVCAR-8 = experiment: NCI 60 cell panel SRB screen; assay type: cell-based; details: Homo sapiens
SF-295 = experiment: NCI 60 cell panel SRB screen; assay type: cell-based; details: Homo sapiens
UO-31 = experiment: NCI 60 cell panel SRB screen; assay type: cell-based; details: Homo sapiens
NCI/ADR-RES = experiment: NCI 60 cell panel SRB screen; assay type: cell-based; details: Homo sapiens
MCF7 = experiment: NCI 60 cell panel SRB screen; assay type: cell-based; details: Homo sapiens
EKVX = experiment: NCI 60 cell panel SRB screen; assay type: cell-based, human; details: Homo sapiens, 5 log dose
M14 = experiment: NCI 60 cell panel SRB screen; assay type: cell-based; details: Homo sapiens
COLO 205 = experiment: NCI 60 cell panel SRB screen; assay type: cell-based; details: Homo sapiens
full NCI 60 cell panel = experiment: NCI 60 cell panel SRB screen, whole panel; assay type: cell-based, human; details: NCI 5-log dose, full 60 cell panel, read-out: GI50 values, range over the tested cell lines
HOP-92 = experiment: NCI 60 cell panel SRB screen; assay type: cell-based; details: Homo sapiens
NCI-H322M = experiment: NCI 60 cell panel SRB screen; assay type: cell-based; details: Homo sapiens
MCF-7 cells [1] = experiment: Annexin V-FITC/PI apoptosis detection; assay type: cell-based; details: MCF-7, at GI50, 24 h and 48 h
Excerpt: To further investigate the ability of compounds (7b, 13c and 16a) to induce apoptosis, an Annexin V (conjugated to FITC) apoptosis detection kit was employed. This assay detects phosphatidylserine (PS) expressed on the surface of apoptotic cells and fluoresces green after interacting with the labelled Annexin V. During early apoptosis, membrane asymmetry is lost, and PS translocates from the cytoplasmic side of the membrane to the external leaflet. Propidium iodide (PI), the counter stain used in this assay, has the ability to cross only compromised membranes to intercalate into the DNA. Therefore, PI is used to detect the late stages of apoptosis by the presence of red fluorescence.
Apoptosis was determined by staining cells with Annexin V–fluorescein isothiocyanate (FITC) and counterstaining with propidium iodide (PI) using the Annexin V–FITC/PI apoptosis detection kit (BD PharMingen, San Diego, CA, USA) according to the manufacturer's instructions. […] The cells then were collected by trypsinization and 0.5 × 10^6 cells were washed twice with phosphate-buffered saline (PBS) and stained with 5 μl Annexin V–FITC and 5 μl PI in 1× binding buffer (BD PharMingen) for 15 minutes at room temperature in the dark. Analyses were performed using FACS Calibur flow cytometer (BD Biosciences, San Jose, CA).

SK-MEL-2 = experiment: NCI 60 cell panel SRB screen; assay type: cell-based; details: Homo sapiens
MCF-7 cells [2] = experiment: Cell-cycle analysis by flow cytometry; assay type: cell-based; details: MCF-7, at GI50 concentration, 24 h and 48 h
Excerpt: The effect of compound (7b and 13c) on the normal cell-cycle progression was characterised using flow cytometric analysis of the DNA ploidy in MCF-7 cells using BD […] ^TM software. […] The observed increase in sub-G1 cell population may imply DNA fragmentation and apoptosis as a potential mechanism for 7b/13c-induced cancer cell death.
The cells then were collected by trypsinization, washed with phosphate buffered saline (PBS), and fixed in ice-cold absolute alcohol. Thereafter, cells were stained, using Cycletest^TM Plus DNA Reagent Kit (BD Biosciences, San Jose, CA), according to the manufacturer’s instructions. Cell cycle distribution was determined using a FACS Calibur flow cytometer (BD Biosciences, San Jose, CA).

SF-539 = experiment: NCI 60 cell panel SRB screen; assay type: cell-based, human; details: Homo sapiens, SF-539, 5 log dose
HT29 = experiment: NCI 60 cell panel SRB screen; assay type: cell-based; details: Homo sapiens, HT-29
A498 = experiment: NCI 60 cell panel SRB screen; assay type: cell-based; details: Homo sapiens
SF-268 = experiment: NCI 60 cell panel SRB screen; assay type: cell-based; details: Homo sapiens
[3] = 5 log dose, 48 h, read-out: LC50 (the source's name)
[4] = single dose 10 μM, read-out: percent cell growth promotion

## O=C(Nc1ccc(Cl)cc1)Nc1ccc(Oc2nncc3ccccc23)cc1 [Compound 7b, 1–(4-Chlorophenyl)-3–(4-(phthalazin-1-yloxy)phenyl)urea]
LOX IMVI
  GI50: 0.16 µM
LOX IMVI; [3]
  CC50: 1.63 µM
LOX IMVI; read-out: TGI
  IC (TGI): 0.45 µM
LOX IMVI; read-out: percent cell growth promotion
  activity at 10 µM: -77.3%
DU-145; DU-145, 5 log dose
  GI50: 0.73 µM
  IC (TGI): 2.08 µM
DU-145; DU-145, 5 log dose, 48 h, read-out: LC50 (the source's name)
  CC50: 4.88 µM
DU-145; DU-145, single dose 10 μM, read-out: percent cell growth promotion
  activity at 10 µM: 11.2%
OVCAR-8; OVCAR-8, 5 log dose
  GI50: 1.1 µM
  IC (TGI): 13.6 µM
OVCAR-8; OVCAR-8, 5 log dose, 48 h, read-out: LC50 (the source's name)
  CC50: > 100 µM
OVCAR-8; OVCAR-8, single dose 10 μM, read-out: percent cell growth promotion
  activity at 10 µM: 19.4%
SF-295; SF-295, 5 log dose
  GI50: 2.54 µM
  IC (TGI): 6.27 µM
SF-295; SF-295, 5 log dose, 48 h, read-out: LC50 (the source's name)
  CC50: 36.9 µM
SF-295; SF-295, single dose 10 μM, read-out: percent cell growth promotion
  activity at 10 µM: 40.7%
UO-31; UO-31, 5 log dose
  GI50: 1.29 µM
  IC (TGI): 2.67 µM
UO-31; UO-31, single dose 10 μM, read-out: percent cell growth promotion
  activity at 10 µM: -51.6%
NCI/ADR-RES; 5 log dose
  GI50: 2.63 µM
  IC (TGI): > 100 µM
NCI/ADR-RES; [3]
  CC50: > 100 µM
NCI/ADR-RES; [4]
  activity at 10 µM: 37.6%
MCF7; MCF7, read-out: TGI
  IC (TGI): 1.89 µM
MCF7; MCF7, read-out: percent cell growth promotion
  activity at 10 µM: 14.3%
MCF7; MCF7, 5 log dose, read-out: GI50
  GI50: 0.32 µM
EKVX
  GI50: 1.61 µM
  IC (TGI): 4.5 µM
EKVX; 48 h
  LC50: > 100 µM
M14; M14
  GI50: 1.12 µM
M14; M14, read-out: TGI
  IC (TGI): 3.16 µM
M14; M14, read-out: percent cell growth promotion
  activity at 10 µM: 7.3%
M14; M14, 5 log dose, 48 h, read-out: LC50 (the source's name)
  CC50: 8.93 µM
COLO 205; COLO 205, 5 log dose
  GI50: 1.18 µM
  IC (TGI): 2.92 µM
COLO 205; COLO 205, 5 log dose, 48 h, read-out: LC50 (the source's name)
  CC50: 7.21 µM
COLO 205; COLO 205, single dose 10 μM, read-out: percent cell growth promotion
  activity at 10 µM: 11.9%
Full NCI 60 cell panel; Homo sapiens, 60 cell
  GI50: 0.15 to 8.41 µM
Full NCI 60 cell panel
  GI50: 0.15 to 2.81 µM
HOP-92; HOP-92, 5 log dose
  GI50: 1.64 µM
  IC (TGI): 4.37 µM
HOP-92; HOP-92, 5 log dose, 48 h, read-out: LC50 (the source's name)
  CC50: 17.1 µM
HOP-92; HOP-92, single dose 10 μM, read-out: percent cell growth promotion
  activity at 10 µM: 12.9%
NCI-H322M; 5 log dose
  GI50: 2.6 µM
  IC (TGI): 9.51 µM
NCI-H322M; [3]
  CC50: 34.9 µM
NCI-H322M; [4]
  activity at 10 µM: 60.9%
MCF-7 cells [1]
  induction of apoptosis (Annexin-V positive cells), in words: increased the percentage of Annexin-V positive cells indicating an early (lower right quadrant) or late (upper right quadrant) apoptosis in a time-dependent manner
SK-MEL-2
  GI50: 1.57 µM
SK-MEL-2; read-out: TGI
  IC (TGI): 3.65 µM
SK-MEL-2; SK-MEL-2, 5 log dose, 48 h, read-out: LC50 (the source's name)
  CC50: 8.5 µM
MCF-7 cells [2]
  effect on cell-cycle progression: induce cell cycle arrest at S phase boundary; also recorded: remarkable disruption in cell cycle profile and cell-cycle arrest at S-phase boundary with concurrent time-dependent increase in pre-G cell population
SF-539
  GI50: 0.28 µM
  IC (TGI): 1.13 µM
SF-539; 48 h, read-out: LC50 (the source's name)
  CC50: 3.81 µM
HT29; HT29, 5 log dose
  GI50: 0.46 µM
  IC (TGI): 2.39 µM
HT29; HT29, 5 log dose, 48 h, read-out: LC50 (the source's name)
  CC50: > 100 µM
HT29; HT29, single dose 10 μM, read-out: percent cell growth promotion
  activity at 10 µM: 0.52%
A498; A498, 5 log dose
  GI50: 1.5 µM
  IC (TGI): 3.06 µM
A498; A498, 5 log dose, 48 h, read-out: LC50 (the source's name)
  CC50: 6.26 µM
A498; A498, single dose 10 μM, read-out: percent cell growth promotion
  activity at 10 µM: 24.5%
SF-268; SF-268, 5 log dose
  GI50: 1.35 µM
  IC (TGI): 7.21 µM
SF-268; SF-268, 5 log dose, 48 h, read-out: LC50 (the source's name)
  CC50: 70.2 µM
SF-268; SF-268, single dose 10 μM, read-out: percent cell growth promotion
  activity at 10 µM: 12.6%
